# Measured values taken from the supplement of paper PMC10307832.
# Tests used:
# Test in all cases: relative viability (nuclei count vs DMSO), 5 days (fraction); higher = more cells survive
# [1] = compound: C1=CC2=C(C=CC(=C2)C=C3C(=O)NC(=NCC4=CC=CS4)S3)N=C1 [RO-3306] + Nc1nc2[nH]cc(CCc3ccc(C(=O)N[C@@H](CCC(=O)O)C(=O)O)cc3)c2c(=O)[nH]1 [Pemetrexed] (partner 0.2 µM)
# How it was run: (§1)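 Relative viability was taken as the ratio of nuclei in treated wells to nuclei in vehicle wells. Lung cancer cell lines in 1536-well plates received compounds by pin tool one day after seeding, either one drug alone or a fixed anchor-drug dose plus five library-drug doses (not always all listed) in √10 steps. Nuclei were counted on 4× images after 5 days of treatment, and values are medians of duplicate plates.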
# [2] = compound: O=S(=O)(c1ccccc1)N(CC(F)(F)F)c1ccc(C(O)(C(F)(F)F)C(F)(F)F)cc1 + CC(=O)c1c(C)c2cnc(Nc3ccc(N4CCNCC4)cn3)nc2n(C2CCCC2)c1=O [Palbociclib] (partner 0.5 µM)
# How it was run: as §1
# [3] = compound: C1=CC2=C(C=CC(=C2)C=C3C(=O)NC(=NCC4=CC=CS4)S3)N=C1 [RO-3306] + CCNC(=O)c1noc(-c2cc(C(C)C)c(O)cc2O)c1-c1ccc(CN2CCOCC2)cc1 [Luminespib] (partner 0.01 µM)
# How it was run: as §1
# [4] = compound: O=S(=O)(c1ccccc1)N(CC(F)(F)F)c1ccc(C(O)(C(F)(F)F)C(F)(F)F)cc1 + CS(=O)(=O)N1CCN(Cc2cc3nc(-c4cccc5[nH]ncc45)nc(N4CCOCC4)c3s2)CC1 [Pictilisib] (partner 1 µM)
# How it was run: as §1
Cell Line,relative viability ([1]; first compound 0.01 µM),relative viability ([1]; first compound 0.03162 µM),relative viability ([1]; first compound 0.1 µM),relative viability ([1]; first compound 0.3162 µM),relative viability ([1]; first compound 1 µM),relative viability ([2]; first compound 0.8 µM),relative viability ([2]; first compound 2.53 µM),relative viability ([2]; first compound 8 µM),relative viability ([3]; first compound 0.01 µM),relative viability ([3]; first compound 0.03162 µM),relative viability ([3]; first compound 0.1 µM),relative viability ([3]; first compound 0.3162 µM),relative viability ([3]; first compound 1 µM),relative viability ([4]; first compound 0.8 µM),relative viability ([4]; first compound 2.53 µM),relative viability ([4]; first compound 8 µM)
LC-2-ad,0.291,0.26,0.278,0.278,0.27,0.53,0.501,0.422,1.01,0.907,0.966,1.09,1.02,0.469,0.377,0.437
LCLC-97TM1,0.175,0.169,0.144,0.178,0.185,–,0.206,0.236,0.765,0.711,0.61,0.752,0.93,0.174,0.218,0.187
LCLC-103H,0.474,0.461,0.448,0.457,0.464,0.503,0.523,0.488,0.872,0.882,0.955,0.93,1.03,0.536,0.592,0.651
LK-2,0.266,0.293,0.264,0.275,0.288,0.508,0.742,0.705,0.187,–,0.18,0.167,0.228,0.628,0.752,0.493
LOU-NH91,0.354,0.346,0.346,0.399,0.373,0.524,0.527,0.561,0.348,0.298,0.312,0.28,0.291,0.539,0.564,0.515
LU99A,0.285,0.267,0.174,0.176,0.188,0.407,0.343,0.374,0.203,0.245,0.233,0.25,0.275,0.296,0.293,0.271
LXF-289,0.805,0.8,1.04,0.9,0.868,0.574,0.502,0.534,0.766,0.654,0.593,0.603,0.577,0.624,0.637,0.588
NCI-H23,0.695,–,0.723,0.591,0.617,0.484,0.526,0.478,0.237,–,–,0.216,0.204,0.641,0.521,0.538
NCI-H322M,0.624,0.613,0.574,0.695,0.592,0.503,0.497,0.51,0.801,0.708,0.907,0.943,0.835,0.551,0.529,0.541
NCI-H358,0.192,0.154,0.177,0.189,0.174,–,0.129,0.116,0.408,0.292,0.376,0.316,0.229,0.274,0.28,0.286
NCI-H441,0.266,0.276,0.228,0.235,0.23,0.212,0.16,0.211,0.248,0.317,0.279,0.313,0.315,0.523,0.401,0.495
NCI-H460,0.0602,0.0669,0.0671,0.0618,0.0563,0.16,0.133,0.113,0.033,0.029,0.0336,0.0289,0.0305,0.436,0.333,0.362
NCI-H520,0.811,0.67,0.714,0.646,0.727,0.231,0.254,0.236,0.252,0.212,0.249,0.218,0.23,0.31,0.258,0.387
NCI-H522,1.16,0.947,0.868,1.16,1.03,1.01,1.14,0.913,1.04,1.12,1.13,1.14,1.22,–,–,–
NCI-H596,0.519,0.403,0.467,0.522,0.452,–,–,–,1.06,0.853,1.13,0.84,0.974,0.353,0.342,0.335
NCI-H647,0.177,0.157,0.153,0.174,0.167,0.329,0.305,0.408,0.234,0.121,0.122,0.174,0.322,0.323,0.345,0.372
NCI-H727,–,–,–,–,–,0.621,0.623,0.618,0.244,–,0.453,0.906,0.3,0.758,0.261,0.353
NCI-H1299,–,–,–,–,–,–,–,–,–,–,–,–,–,0.875,0.78,0.663
NCI-H1563,0.847,0.788,0.818,0.852,0.692,–,–,–,0.516,0.519,0.6,0.533,0.507,0.734,0.655,0.581
NCI-H1623,–,–,–,–,–,–,–,–,0.574,0.451,0.617,0.471,0.5,–,–,–
NCI-H1648,0.887,–,0.602,0.697,0.873,0.258,0.274,0.29,–,–,–,–,–,–,–,–
NCI-H1703,–,–,–,–,–,–,–,–,–,–,–,–,–,0.253,0.211,0.218
NCI-H2342,0.71,0.778,0.816,0.817,0.759,0.592,0.545,0.502,0.742,0.627,0.727,0.759,0.73,–,–,–
SW 900,0.487,0.383,0.464,0.488,0.411,0.409,0.421,0.5,0.148,0.181,0.172,0.175,0.183,–,–,–
